Experimental data reported in US20060159735A1, “Method of reclaiming drug compound from liposomal drug manufacturing stream” (priority 2005, published 2006).

Tests used:
Format in all cases: physicochemical
[1] = Partitioning of HSPC and cholesterol dispersions into chloroform; conditions: 1:3 CHCl3:Aq volume ratio, HPLC; for extraction efficiency with chloroform: 0.1 mg/mL cholesterol:HSPC dispersion
Method: Concentrations of 1 mg/mL and 0.1 mg/mL of the 2:1 molar ratio HSPC:cholesterol spray dried mix dispersions were produced. Then the mixes were extracted with chloroform and varying chloroform:aqueous ratios at 1:3, 1:1 and 3:1. […] The other ratios produced milky emulsions in the aqueous phase.
HSPC consists of two main components: PSPC (1-palmitoyl-2-stearoyl-sn-glyero-3-phosphocholine) and DSPC (1,2-distearoyl-sn-glycero-3-phosphocholine). […] For the 0.1 mg/mL dispersion the extraction was less efficient; being ˜95% for cholesterol, ˜63% for PSPC and ˜24% for DSPC.

[2] = Partitioning of HSPC and cholesterol into chloroform in the presence of OSI-7904; conditions: for retained in the aqueous phase: first extraction, 17 mg/mL OSI-7904 with ~0.5 mg/mL HSPC:cholesterol mix, 1:3 CHCl3:Aq, shaking 1 hour; for amounts retained in the aqueous phase: second extraction with chloroform of the aqueous phase
Method: A 17 mg/mL OSI-7904 solution containing ˜0.5 mg/mL, 2:1 molar ratio HSPC:cholesterol mix was produced and extracted by mechanical shaking for 1 hour with chloroform at the 1:3 (CHCl3:Aq) ratio. Before partition the aqueous phase was hazy and yellow in color. After extraction the upper aqueous phase was clear and yellow.
The upper aqueous phase was analyzed for HSPC, cholesterol and OSI-7904. Approximately 94% of OSI-7904 was retained in the aqueous phase and approximately 2%, 8% and 8% retained of cholesterol, DSPC and PSPC respectively. This aqueous phase was extracted a second time with chloroform. The amounts retained in the aqueous phase for PSPC, DSPC and cholesterol were approximately 65%, 100% and 67% respectively for this second extraction.

[3] = Potentiometric titration of OSI-7904 (Sirius Glpka autotitrator), with and without chloroform; solubility
Source text: The ability of OSI-7904 to partition into chloroform as a function of pH was studied using a Sirius Glpka autotitrator. Attempts were first made to determine the pKas of the OSI-7904 drug substance using the Sirius autotitrator, since these values are required when determining the partition coefficients by potentiometric titration. […] It is usual practice, with a compound of low solubility, to titrate the compound with various amounts of cosolvent present to determine apparent pKas and then perform an extrapolation back to 100% aqueous to calculate the true thermodynamic pKa. However, even with cosolvent (methanol) present, precipitation of the drug was still a problem and reproducible data sets were not obtained. […] As a result, extraction of OSI-7904 with chloroform is not a practical proposition since large volumes of chloroform would be required to solubilise the drug.
In this case, the Bjerrum plot is for the titration of 10 mL of 0.33 mM OSI-7904 aqueous solution in the presence of 5 mL chloroform. Titration started at low pH. The sharp change in slope at pH˜4.5 and lack of symmetry in the curve is indicative of undissolved compound present which then dissolves as the pH is increased.

[4] = Chloroform extraction of OSI-7904 solution with trace (saturated solution) HSPC and cholesterol; conditions: 1.2 mg/mL OSI-7904, trace HSPC and cholesterol; 1:3 CHCl3:Aq
Source text: The work above had been carried out with dispersions of solid HSPC:cholesterol. It was thought that the actual permeate would only contain materials in free solution. A better model for this was considered to be saturating some water with the HSPC:cholesterol mix, filtering out the solid and working with this clarified solution. A saturated solution prepared in this way typically contained only traces of cholesterol and HSPC. It was noticed however that on one occasion when the dispersion of HSPC:cholesterol in water had been stirred continuously for approximately four days, the filtrate was opalescent and not clear and the levels of the HSPC and cholesterol were much higher. It was thought the most likely explanation for this was that initially multilamellar liposomes were formed and these were filtered out leaving only HSPC and cholesterol that are in free solution or in micelles. On extending mixing, the multilamellar liposomes are broken down to smaller particles and these are able to pass through the pores of the filter.
A 1.2 mg/mL solution of OSI-7904 was prepared containing trace levels of HSPC and cholesterol in solution (no solid present). This was extracted with chloroform in the 1:3 ratio (8.8 mL:26.5 mL, CHCl3:Aq) by manually shaking for 1 min. […] The aqueous phase was filtered through a 0.45 μm aperture filter and analyzed for OSI-7904, cholesterol and HSPC by HPLC. […]

Compound	extraction efficiency with chloroform [1] [%]	retained in the aqueous phase [2]	amounts retained in the aqueous phase [2]	solubility in aqueous media ([3]; at low pHs)	solubility in chloroform ([3]; even at low pH, titration in presence of chloroform)	solubility ([3]; with aqueous solution present during titration, organic solvent or mixture, from Bjerrum plot, titration of 10 mL 0.33 mM aqueous solution in presence of 5 mL chloroform) [µg/mL]	levels after extraction with chloroform ([1]; 1 mg/mL cholesterol:HSPC dispersion)	change in concentration in the aqueous phase after extraction with chloroform [4]
CCCCCCCCCCCCCCCCCC(=O)OC[C@H](COP(=O)([O-])OCC[N+](C)(C)C)OC(=O)CCCCCCCCCCCCCCCCC [DSPC, 1,2-distearoyl-sn-glycero-3-phosphocholine]	~24	~8%	~100%					
Cc1nc2ccc3ccc(CNc4ccc5c(c4)CN([C@@H](CCC(=O)O)C(=O)O)C5=O)cc3c2c(=O)[nH]1 [OSI-7904]		Approximately 94%		very insoluble	very low	< 400		
CCCCCCCCCCCCCCCCCC(=O)O[C@H](COC(=O)CCCCCCCCCCCCCCC)COP(=O)([O-])OCC[N+](C)(C)C [PSPC, 1-palmitoyl-2-stearoyl-sn-glyero-3-phosphocholine]	~63	~8%	approximately 65%					
CC(C)CCC[C@@H](C)[C@H]1CC[C@H]2[C@@H]3CC=C4C[C@@H](O)CC[C@]4(C)[C@H]3CC[C@]12C [cholesterol]	~95	approximately 2%	~67%				undetectable	no decrease
